Measured values as given in patent publication US20070020140A1, “Decontamination of biological microbes using metal cations suspended in ethanol” (priority 2005, published 2007).

Columns and labels:
[1] = system: Bacillus atrophaeus subspecies globigii spores; assay: Assay to quantify spore kills, dry-prepared Bg spores (section 2); assay type: cell-based; conditions: 0.5 M, 15 minutes at 25° C., FIG. 4
[2] = system: B. atrophaeus subspecies globigii spores; assay type: cell-based, Bacillus atrophaeus subspecies globigii; conditions: 0.5 M in water
Method: Dry-prepared spores of non-pathogenic B. atrophaeus subspecies globigii (B. globigii or Bg) were prepared at the Army's Dugway Proving Ground to mimic a bio-weapon, and they are used for bio-weapons studies, including the following experiments. The assay for decontamination experiments was performed with 3-4 replicates and many experiments were reproduced numerous times. The assay included the steps of (1) suspending Bg spores in the appropriate solvent (water or ethanol) at a concentration of 2 mg spores/ml (approximately 2×10^8 spores/ml) with starting volume of over 1 ml of spores at 2 mg/ml; (2) removing 3 or 4 spore aliquots of 50 ul per aliquot with each aliquot serially diluted in 1x PBS and plated on Luria-Bertani (LB) or Tryptic Soy (TSA) agar plates (this is a control step that gave the spore titer or colony-forming units (CFUs) at Time=0 minutes (T0)); (3) placing the appropriate decontamination solution (2x concentration) aliquoted into each of 3 or 4 eppendorf tubes with 200 ul per tube and then 200 ul of spores were added and mixed to give a final concentration of 1x decontamination solution and 1 mg spores/ml; (4) the spores in decontamination solution were then mixed and incubated for specific time periods and temperatures. A typical incubation was in a room temperature (25° C.) water bath for 30 (or 60) minutes (no agitation was performed during the incubation period in order to mimic real world situations); (5) aliquots of spores from the 3 or 4 replicates were removed after 30 (or 60) minutes with the aliquots serially diluted in 1x PBS and plated on LB or TSA agar plates which gave a CFU at Time=30 minutes (T30) (the titer of live spores after the decontamination test); (6) after removing the aliquots at the 30-minute time point, some test samples were then immediately incubated in a 70° C. water bath for another 30 minutes, the samples were then serially diluted and plated on to LB agar plates to determine the titer after the 70° C. incubation.

[3] = system: Bacillus cereus spores; assay: Assay to quantify spore kills, wet-prepared Bc spores (section 2); assay type: cell-based, B. cereus RSVF1, ATCC 4342; conditions: FIG. 5
[4] = 60 minutes at 25° C., ten out of the thirteen experiments
[5] = additional 30 minutes at 70° C., pH-neutralized to pH 7-8, all 11 experiments
[6] = 0.5 M in 50%, 75% and 90% ethanol, 15 minutes at 25° C.

With `[Cl][Cu][Cl]` [Cu^+2, copper chloride] the “activity against Bg spores” value ([1]; in 50%, 75% and 90% ethanol) was “strongest activity”, the log spore kill [2, 4] was over 1 log and the spore kills [2, 4] was “greater than 92%”. For the same molecule, the kill of spores [2, 5] was 100%, the logs of kill [2, 5] was over 7 logs and the “activity against Bc spores” value [3, 6] was “strong activity”.
In the case of `[Cl-].[Cl-].[Zn+2]` [Zn^+2, ZnCl2], the CFU reduction ([1]; in 50% ethanol) is reported as “greater than two logs” and the “activity against Bc spores” value ([3]; 0.5 M in 50% and 75% ethanol, 15 minutes at 25° C.) is reported as “slight activity”.
For `O.O.[Ca+2].[Cl-].[Cl-]` [Ca^+2, CaCl2-2H2O], the “effect on Bg spores” value ([1]; regardless of the solvent (water, 25-90% ethanol)) was “no affect” and the “effect on Bc spores” value ([3]; 0.5 M in water, 25%, 50%, 75% or 90% ethanol, 15 minutes at 25° C.) was “no affect”.
For `O.O.O.O.O.O.[Cl-].[Cl-].[Cl-].[Fe+3]` [Fe^+3, FeCl3·6H2O], the CFU reduction ([1]; in water and at any ethanol concentration) was “greater than three logs”, the “CFU reduction (logs)” value [3, 6] was “greater than three logs” and the “CFU reduction (percent)” value [3, 6] was over 99.9%. The “CFU reduced relative to the control” value ([3]; 0.5 M in water, within 15 minutes) was “less than half a log”.
